SMILES,melting point [°C],boiling point [°C],ready biodegradability,log10 Koc (L/kg),log10 Koa,log10 vapour pressure (mmHg),log10 Henry constant (atm·m³/mol)
C[C@H]1O[C@@H](n2cc(F)c(=O)[nH]c2=O)[C@H](O)[C@@H]1O,190,–,–,–,–,–,–
O=[N+]([O-])c1cccc2cccc([N+](=O)[O-])c12,173,–,–,–,–,–,–
O=C1c2ccc(O)cc2OC(c2ccc(O)c(O)c2)C1O (stereo not drawn),227,–,–,–,–,–,–
FC(F)C(F)(F)CBr,–,74,–,–,–,–,–
CN1CCCc2ccccc21,–,246,–,–,–,–,–
CCc1cc2c(s1)N(C)C(=O)CN=C2c1ccccc1Cl,119,–,–,–,–,–,–
CS(=O)(=O)c1ccccc1,86,–,–,–,–,–,–
O=S(=O)(O)c1cccc2c(S(=O)(=O)O)cccc12,–,–,readily biodegradable,–,–,–,–
CCCCCCCCCCCCCCCCC=O,36,–,–,–,–,–,–
Oc1cccc(C(F)(F)F)c1,-1.8,178,–,–,–,–,–
Oc1ccccc1-c1nnco1,112,–,–,–,–,–,–
CCCC(=O)CCC(C)C,–,178,–,–,–,–,–
CCCCOCCOC(=O)C(C)Oc1ccc(Cl)cc1Cl (stereo not drawn),–,–,–,3,–,–,–
Brc1ccc(Oc2ccccc2Br)cc1,–,–,–,–,8.47,–,–
CN(C)C(=O)Nc1cc(C(C)(C)C)on1,120,–,readily biodegradable,2.47,–,-6.42,–
CC[C@H]1O[C@]2(CC[C@@H]1C)C[C@@H]1C[C@@H](CC=C(C)C[C@@H](C)C=CC=C3CO[C@@H]4[C@H](O)C(C)=C[C@@H](C(=O)O1)[C@]34O)O2,214,–,–,–,–,–,–
C=CC1CCC1C=C (stereo not drawn),–,112,–,–,–,–,–
c1ccn2cccc2c1,75,205,–,–,–,–,–
CNC(=O)N(C)c1nnc(C(F)(F)F)s1,136,–,–,–,–,–,–
CCOC(OCC)c1ccco1,–,192,–,–,–,–,–
Clc1cc2oc3c(Cl)c(Cl)c(Cl)cc3c2cc1Cl,196,–,–,–,10.4,-8.58,–
C=CCCC(=C)C,-129,88.1,–,–,–,–,–
O=C1C[C@H]2CCCC[C@H]2C1,-1,222,–,–,–,–,–
CC[C@H](O)C(C)C,–,126,–,–,–,–,–

SMILES,melting point [°C],boiling point [°C],ready biodegradability,log10 Koc (L/kg),log10 Koa,log10 vapour pressure (mmHg),log10 Henry constant (atm·m³/mol)
O=[N+]([O-])c1ccc(Oc2ccc(C(F)(F)F)cc2Cl)cc1,68,–,–,–,–,–,–
CC[SiH](CC)CC,–,109,–,–,–,–,–
C1CSCS1,-50,175,–,–,–,–,–
O=S(=O)(Cl)c1ccccc1,14.5,252,–,–,–,-1.24,–
CC=CC=CC=CC=O,56.8,–,–,–,–,–,–
O=C(O)c1ccccc1C(c1ccc(O)cc1)c1ccc(O)cc1,230,–,–,–,–,–,–
ClCc1ccccc1,-45,179,readily biodegradable,–,–,0.0899,–
O=C1CCCCCC1c1ccccc1 (stereo not drawn),22.2,–,–,–,–,–,–
OCC1CCCO1 (stereo not drawn),–,178,readily biodegradable,–,–,-0.0964,–
CC#CCC(C)C,-92.9,102,–,–,–,–,–
CC1CNCCN1 (stereo not drawn),62,153,–,–,–,–,–
CCCSP(=O)(OCC)Oc1cnn(-c2ccc(Cl)cc2)c1 (stereo not drawn),–,–,–,–,–,-7.92,–
CC#CCCCC,–,112,–,–,–,–,–
OC1CCCCCC1,2,185,–,–,–,–,–
CC(=O)Oc1cccc2cc3cccc(OC(C)=O)c3c(OC(C)=O)c12,–,–,not readily biodegradable,–,–,–,–
N#Cc1ccccc1C(F)(F)F,18,205,–,–,–,–,–
Nc1cccc(O)c1,123,–,not readily biodegradable,–,–,–,–
Nc1ccccc1CO,83.5,273,–,–,–,–,–
FC(F)(F)Br,-172,-57.8,–,–,–,4.09,-0.302
CC1(C)CCC(C)(C)C1,-88.4,118,–,–,–,–,–
ClCC(Cl)C(Cl)(Cl)Cl (stereo not drawn),–,180,–,–,–,–,–
C#CC(C)(C)NC(=O)c1ccccc1,–,–,–,1.54,–,–,–
O=C(O)COc1cccc(Cl)c1Cl,174,–,–,–,–,–,–
CCC(CC)C(=O)O,-31.8,194,readily biodegradable,–,–,-0.726,–

SMILES,melting point [°C],boiling point [°C],ready biodegradability,log10 Koc (L/kg),log10 Koa,log10 vapour pressure (mmHg),log10 Henry constant (atm·m³/mol)
FC(F)(F)C1(F)C(F)(F)C(F)(F)C(F)(F)C(F)(C(F)(F)F)C1(F)F (stereo not drawn),-70,102,–,–,–,–,–
COC(=O)C1(S(=O)(=O)c2ccc([N+](=O)[O-])cc2)CC1,127,–,–,–,–,–,–
Nc1ccc([N+](=O)[O-])cc1N,200,–,–,–,–,–,–
CCSC(C)=O,–,116,–,–,–,–,–
CCCOC(=O)c1ccc(C(=O)OCCC)nc1,–,–,not readily biodegradable,–,–,–,–
CC(C)COC(=O)c1ccccc1,–,242,–,–,–,–,–
COc1ccc(CCc2cc(OC)c3ccccc3n2)cc1OC,116,–,–,–,–,–,–
C[Si](C)(C)O[Si](C)(C)O[Si](C)(C)O[Si](C)(C)O[Si](C)(C)C,-80,232,–,–,–,-0.991,–
Cc1c(Br)c(Br)c(Br)c(Br)c1Br,288,–,not readily biodegradable,–,–,–,–
C=C(C)[C@@H]1CC=C(C)C(=O)C1,–,–,–,–,–,-0.988,–
CC(C)CN,-85,68.5,readily biodegradable,–,–,2.14,–
CNC(=O)Oc1ccccc1OC(CCl)OC (stereo not drawn),80,–,–,–,–,–,–
CCCCCCCCCCCCCCCCI,22,–,–,–,–,-4.78,–
CC1=CCCC=C1,–,108,–,–,–,–,–
NC(=O)C(Cl)(Cl)Cl,142,240,–,0.99,–,–,–
CC(C)(C)CCl,-20,84.3,–,–,–,–,–
O=C(Nc1ccc([N+](=O)[O-])cc1Cl)c1cc(Cl)ccc1O,230,–,not readily biodegradable,3.35,–,-10.8,–
CCC(C)C(C)(CC)CC (stereo not drawn),–,162,–,–,–,–,–
CC1SC(C)SC(C)S1 (stereo not drawn),101,246,–,–,–,–,–
c1cc2c(cc1O[C@H]1OC[C@H]3[C@@H]1CO[C@@H]3c1ccc3c(c1)OCO3)OCO2,93.5,–,–,–,–,–,–
CCCCCCCCCCSSCCCCCCCCCC,–,–,not readily biodegradable,–,–,–,–
CCCN(CCOc1c(Cl)cc(Cl)cc1Cl)C(=O)n1ccnc1,48,–,–,2.7,–,-5.95,–
CC(O)COc1ccccc1 (stereo not drawn),–,243,–,–,–,–,–
